The record followed here is paper PMC7508162 (Frontiers in Pharmacology, 2020).

By Ki is commonly meant a dissociation constant, usually derived from enzyme kinetics or from competition with a known ligand. A word on the inhibition: it is the drop in the measured response relative to a control, in per cent. A lower inhibition goes with a response near the control.

For assay [1], the target named is T1, human CD73 (Homo sapiens, UniProt P21589).
T1 construct: the catalytic domains of the enzymes were amplified and sub-cloned into the expression vector pACGP67 A/B; 9xHis (C); made in house; host or cells: Sf9 insect cells (baculovirus, pACGP67 A/B)
T1 sequence (P21589 27-549 limits assumed): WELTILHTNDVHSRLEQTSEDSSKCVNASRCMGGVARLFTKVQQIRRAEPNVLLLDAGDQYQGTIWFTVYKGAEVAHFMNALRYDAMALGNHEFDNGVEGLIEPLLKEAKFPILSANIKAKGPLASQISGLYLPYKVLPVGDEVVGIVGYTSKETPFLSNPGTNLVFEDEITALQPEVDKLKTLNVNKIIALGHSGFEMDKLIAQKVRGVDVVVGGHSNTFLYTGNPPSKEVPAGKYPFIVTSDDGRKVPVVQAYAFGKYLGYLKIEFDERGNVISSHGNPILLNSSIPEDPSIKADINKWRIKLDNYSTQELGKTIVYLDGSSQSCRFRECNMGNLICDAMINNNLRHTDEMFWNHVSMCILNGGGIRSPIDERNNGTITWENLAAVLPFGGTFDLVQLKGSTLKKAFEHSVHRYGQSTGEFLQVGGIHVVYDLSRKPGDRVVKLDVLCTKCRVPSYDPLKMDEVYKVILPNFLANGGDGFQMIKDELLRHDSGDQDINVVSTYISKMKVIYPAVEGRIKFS
The assay can be described thus: CD73 assay with [2,8-3H]AMP as radioactive substrate. It counts as biochemical. As to conditions: for Ki: soluble human CD73, 5.0 µM [2,8-3H]AMP, read-out: Ki ± SEM. From the text:
(§1) The cDNAs of the human enzymes NPP1, NPP3, NPP5, CD38 and CD73 (Genbank accession no. NM_006258, NM_005021, NM_021572, NM_ 001775, and NM_002526, respectively) were obtained from Origene (Rockville, USA). Soluble enzymes were produced as previously reported with some modifications ([Lee et al., 2015]; [Junker et al., 2019]). Briefly, the catalytic domains of the enzymes were amplified and sub-cloned into the expression vector pACGP67 A/B modified with the addition of 9 x histidine tag (His-tag) at the C-terminus (except for NPP1). The plasmids were transfected in Sf9 insect cells using Cellfectin™ II Reagent (Thermo Fisher Scientific, MA, USA) and ProEasy™ baculovirus linearized DNA (Cat.#A10S, AB Vector, LLC). Protein expression was conducted for 48 h at 27°C. The signal peptide sequence of the expression vector shuttled the proteins into the supernatant. The supernatant medium was collected, and the enzymes were purified using HisPur™ Ni^2+-NTA spin columns according to the manufacturer’s protocol. The protein concentration was determined by the method previously described by [Lowry et al. (1951)].
The assay was performed as previously described ([Freundlieb et al., 2014]). Briefly, it contained with 0.09 µg/ml of soluble human CD73 recombinantly expressed in Sf9 insect cells as described ([Junker et al., 2019]), the respective test compound, and 5.0 µM [2,8-^3H]AMP (specific activity 7.4 x 108 Bq/mmol, 20 mCi/mmol) as radioactive substrate in assay buffer consisting of 25 mM Tris buffer, 140 mM NaCl, 25 mM NaH2PO4 pH 7.4. The enzymatic reaction was performed for 25 min at 37°C in a shaking water bath. Then, 500 µl of cold precipitation buffer (100 mM LaCl3, 100 mM sodium acetate, pH 4.0) were added to precipitate free phosphate and unconverted [2,8-^3H]AMP. After 30 min on ice, filtration through GF/B glass fiber filters using a cell harvester was used to separate AMP from adenosine. After washing each reaction vial three times with 400 µl of cold (4°C) demineralized water, aliquots of the filtrate were taken, and 5 ml of scintillation cocktail (ULTIMA Gold XR9) was added. The amount of formed adenosine was quantified by liquid scintillation counting (TRICARB 2900 TR, Packard/PerkinElmer).

In assay [2] the target is T2, human NPP3 (Homo sapiens, UniProt O14638).
T2 construct: the catalytic domains of the enzymes were amplified and sub-cloned into the expression vector pACGP67 A/B; 9xHis (C); made in house; host or cells: Sf9 insect cells (baculovirus, pACGP67 A/B)
T2 sequence (O14638 31-875 limits assumed): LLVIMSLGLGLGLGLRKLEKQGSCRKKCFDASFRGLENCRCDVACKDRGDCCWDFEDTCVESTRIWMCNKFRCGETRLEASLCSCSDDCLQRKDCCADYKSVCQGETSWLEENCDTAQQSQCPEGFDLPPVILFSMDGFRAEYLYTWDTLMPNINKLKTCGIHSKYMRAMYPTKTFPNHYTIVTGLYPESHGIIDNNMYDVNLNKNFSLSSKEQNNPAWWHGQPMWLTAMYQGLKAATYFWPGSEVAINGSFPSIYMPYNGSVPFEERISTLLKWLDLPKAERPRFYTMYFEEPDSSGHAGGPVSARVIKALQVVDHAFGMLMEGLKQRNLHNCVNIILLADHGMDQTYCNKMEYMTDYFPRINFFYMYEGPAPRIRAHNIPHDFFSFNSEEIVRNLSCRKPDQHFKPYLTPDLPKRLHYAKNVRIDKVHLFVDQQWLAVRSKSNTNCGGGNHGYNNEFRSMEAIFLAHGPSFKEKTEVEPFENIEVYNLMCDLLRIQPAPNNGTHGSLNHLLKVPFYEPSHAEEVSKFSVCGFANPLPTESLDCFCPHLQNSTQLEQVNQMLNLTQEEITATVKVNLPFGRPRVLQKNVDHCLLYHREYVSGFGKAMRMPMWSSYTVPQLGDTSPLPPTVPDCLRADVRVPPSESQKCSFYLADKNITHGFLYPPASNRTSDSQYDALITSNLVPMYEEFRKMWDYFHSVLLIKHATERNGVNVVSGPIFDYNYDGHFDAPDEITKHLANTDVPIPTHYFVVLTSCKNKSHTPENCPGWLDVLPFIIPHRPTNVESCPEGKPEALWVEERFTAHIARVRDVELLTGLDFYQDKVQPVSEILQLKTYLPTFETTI
As to the kind of experiment: NPP3 assay with ϵ-NAD+ as substrate. It counts as biochemical. The settings on record: for inhibition at 10 µM: 10 µM test compound; for Ki: 20 µM ϵ-NAD+, read-out: Ki ± SEM.
Excerpt: as §1
The assays were performed in analogy to published procedures ([Blacher et al., 2015]). The enzymatic activity of human NPP3 and NPP5 (soluble forms expressed in insect cells and purified as previously described ([Lee et al., 2015]; [Lopez et al., 2020]) was measured using 1,N^6-etheno-nicotinamide adenine dinucleotide (ϵ-NAD^+) as a substrate, which is hydrolyzed to fluorescent 1,N^6-etheno-AMP (ϵ-AMP). The enzymatic reactions were performed in reaction buffer [10 mM N-cyclohexyl-2-aminoethanesulfonic acid (CHES), 2 mM CaCl2, and 1 mM MgCl2, pH 9.0 in H2O]. Purified NPP3 (90 ng) or NPP5 (400 ng), 20 µM of ϵ-NAD^+ and 10 µM of the test compound were incubated for 30 min at 37°C. The relative fluorescence at 270 nm excitation and 420 nm emission was detected by a fluorescence microplate reader (Flexstation, Medical Devices LLC. USA, Softmax Pro software to collect the data).

Turning to `CCCCSc1nc2c(N)ncnc2n1[C@@H]1O[C@H](COP(=O)(O)OP(=O)(O)C(Br)(Br)P(=O)(O)O)[C@@H](O)[C@H]1O` [Compound 31, (((((((2R,3S,4R,5R)-5-(6-Amino-8-(butylthio)-9H-purin-9-yl)-3,4-dihydroxytetrahydrofuran-2-yl)methoxy)(hydroxy)-phosphoryl)oxy)(hydroxy)phosphoryl)dibromomethyl)-phosphonic Acid], in assay [1], the Ki amounted to 831 ± 274 nM. In assay [2], the inhibition at 10 µM turned out to be 8% and the Ki was > 10 µM.

With `CCN(CC)c1ncnc2c1ncn2[C@@H]1O[C@H](COP(=O)(O)OP(=O)(O)C(Br)(Br)P(=O)(O)O)[C@@H](O)[C@H]1O` [ARL67156, (Dibromo((((((2R,3S,4R,5R)-5-(6-(diethylamino)-9H-purin-9-yl)-3,4-dihydroxytetrahydrofuran-2-yl)methoxy)-(hydroxy)-phosphoryl)oxy)(hydroxy)phosphoryl)methyl)-phosphonic Acid, reference compound], the Ki in assay [1] is 451 ± 121 nM; in assay [2], > 10 µM. In assay [2], the inhibition at 10 µM came to 13%.

In the case of `CCCCNc1nc2c(NC)ncnc2n1[C@@H]1O[C@H](COP(=O)(O)OP(=O)(O)C(Br)(Br)P(=O)(O)O)[C@@H](O)[C@H]1O` [Compound 33, (Dibromo((((((2R,3S,4R,5R)-5-(8-(butylamino)-6-(methylamino)-9H-purin-9-yl)-3,4-dihydroxy-tetrahydrofuran-2-yl)methoxy)(hydroxy)phosphoryl)oxy)-(hydroxy)phosphoryl)methyl)-phosphonic Acid], the “fold higher potency at CD73 compared to CD39” value in assay [1] (CD73 Ki vs CD39 Ki) is 8 fold. Besides, the results for the inhibition constant Ki in assay [1] and in assay [2] were 185 ± 74 nM and > 10 µM, respectively. The compound further had an inhibition at 10 µM in assay [2] of 8%.
